Non-standard residues stand in square brackets, D forms with d. Residues, ends and D or L forms follow the SMILES beside them. *: point of attachment. Cbz = O=C(OCc1ccccc1)*; Dap = NC[C@H](N)C(=O)O
Legend:
NVPro = NVPro (Norovirus, UniProt Q83883); assay: Inhibition of recombinant NVPro; format: biochemical; settings: for Ki: Table 1, recombinant NVPro; for fold less active than compound 1: ratio of Ki vs compound 1
HOVPro = HOVPro (Norovirus Hu/Houston/TCH186/2002/US (Norovirus GII.4), UniProt A9YYE3); assay: Inhibition of Houston virus protease; format: biochemical; settings: HOVPro vs NVPro Ki

| SMILES | inhibitory activity against NVPro (NVPro; NVPro) | Ki (NVPro) | fold less active than compound 1 (NVPro; NVPro) | also measured |
| --- | --- | --- | --- | --- |
| CCOC(=O)/C=C/[C@H](CCC(=O)N(C)C)NC(=O)[C@H](Cc1ccccc1)NC(=O)[C@H](CC(C)C)NC(=O)OCc1ccccc1 [compound 11] | essentially inactive | inactive |  |  |
| CC(C)C[C@H](NC(=O)OCc1ccccc1)C(=O)N[C@@H](Cc1ccccc1)C(=O)N[C@H](C=O)CCC(=O)N(C)C [compound 1, Z-Leu-Phe-Gln(diMe)-CHO] (Cbz-Leu-Phe-Glu(NMe2)-aldehyde) |  |  |  | fold activity reduction against HOVPro as compared with NVPro (HOVPro): > 60 fold; fold more active than compound 8 (NVPro; NVPro, ratio of Ki): 380 fold; fold more active than compounds 5 and 2 (NVPro; NVPro, ratio of Ki): 3-5 fold |
| CCOC(=O)/C=C/[C@H](CNC(C)=O)NC(=O)[C@H](Cc1ccccc1)NC(=O)[C@H](CC(C)C)NC(=O)OCc1ccccc1 [compound 13] | Neither 12 nor 13 exhibits inhibitory activity | inactive |  |  |
| CCOC(=O)/C=C/[C@H](CCC(N)=O)NC(=O)[C@H](Cc1ccccc1)NC(=O)[C@H](CC(C)C)NC(=O)OCc1ccccc1 [compound 12] | Neither 12 nor 13 exhibits inhibitory activity | inactive |  |  |
| CC(=O)NC[C@@H](C=O)NC(=O)[C@H](Cc1ccccc1)NC(=O)[C@H](CC(C)C)NC(=O)OCc1ccccc1 [compound 3] (Cbz-Leu-Phe-[Dap](Ac)-aldehyde) |  |  | ~ 12 fold |  |
| CNC(=O)CC[C@@H](C=O)NC(=O)[C@H](Cc1ccccc1)NC(=O)[C@H](CC(C)C)NC(=O)OCc1ccccc1 [compound 14] (Cbz-Leu-Phe-Glu(NHMe)-aldehyde) |  |  | 42 fold |  |
| CC(=O)N[C@@H](CC(C)C)C(=O)N[C@@H](Cc1ccccc1)C(=O)N[C@H](C=O)CCC(=O)N(C)C [compound 9] (Ac-Leu-Phe-Glu(NMe2)-aldehyde) |  |  | > 300 fold |  |
| CC(=O)[C@H](CCC(=O)N(C)C)NC(=O)[C@H](Cc1ccccc1)NC(=O)[C@H](CC(C)C)NC(=O)OCc1ccccc1 [compound 10] |  |  | 1,200 fold |  |
| CC(C)C[C@H](NC(=O)OCc1ccccc1)C(=O)N[C@@H](Cc1ccccc1)C(=O)N[C@H](C=O)CCC(=O)NC1CC1 [compound 15] |  |  |  | fold improved inhibition as compared to compound 14 (NVPro; NVPro, ratio of Ki): ~ 3 fold |
